Experimental data taken from US20120190751A1, “COMPOUNDS FOR TREATMENTS OF INFLAMMATION” (ANA-MAR AB, priority 2009, published 2012).
Structures can show the parent of a compound that is named as a salt.

System: rat synoviocytes
Test: IL-6 release from LPS-stimulated rat synoviocytes
Format: cell-based
Details: 1 μM 5-HT + LPS 50 ng/ml; test substance 0.1, 1 or 10 μM; 72 hours; FIG. 7A
Experimental: Pannus from the inflamed knee of rats with antigen-induced arthritis (AIA) (see description of this model below; Andersson, S. E et al., (1998), J. Rheumatology 25: 1772-1777) was isolated three to five days after challenge, stored in PBS supplemented with 100 U/ml Penicillin-Streptomycin (PEST, Invitrogen Corporation) and 2.5 μg/ml Fungizone (Amphotericin B, Invitrogen) until it was further processed within a couple of hours. The PBS was discarded and the tissue cut in small pieces followed by digestion in a collagenase solution (400 U/ml; type 1 CLS-1, Worthington) for 3 hours at 37° C., 5% CO2. The suspension was filtered through a nylon mesh (70 μm), washed with tissue culture medium (RPMI-1640 with L-glutamine, Invitrogen, supplemented with 10% fetal bovine serum (FBS) and 100 U/ml PEST and 2.5 μg/ml Fungizone) and centrifuged (257 g). The cells were resuspended in tissue culture medium and seeded in cell culture flasks (T25, TPP). After overnight culture, nonadherent cells were removed by exchanging the medium, the cells were incubated at 37° C., 5% CO2, the medium was exchanged every third day until confluence was reached (7-10 days). The culture consisted of a mixed cell population with the principal constituents being fibroblasts and macrophages (Andersson, S. E. et al. (2000), Eur. J. Pharm. Sci 9: 333-343).
The cells were counted and reseeded at a density of 10000 cells/0.2 ml in 96-well cell culture plates (Nunc). After overnight culture the cells were stimulated with 50 ng/ml Lipopolysaccharide (LPS, E. coli 055:B5, Sigma) with simultaneous addition of 0.1, 1 and 10 μM N-(2-chloro-3,4-dimethoxybenzylideneamino)guanidine and 1 μM of 5-HT2 receptor agonists (triplicates). The cells were incubated for 72 hours after which the supernatants were collected and analyzed for IL-6 (OptEIA™ Set Rat IL-6). The effect of treatment on cell viability was determined using the cell proliferation reagent, WST-1 (Roche Diagnostics).
Inflamed knee joints of rats with antigen-induced arthritis (AIA) were dissected four days after intra-articular challenge with antigen. Freshly isolated pannus tissue was collected in phosphate-buffered saline (PBS) supplemented with 100 U/ml penicillin, streptomycin (PEST, Invitrogen) and 2.5 μg/ml Fungizone (Amphotericin B, Invitrogen), finely minced with a pair of scissors and digested with 400 U/ml collagenase (type 1 CLS-1, Worthington) in RPMI 1640 (Gibco) supplemented with PEST and fungizone (2.5 μg/ml) for 3 hours. The cell suspension was filtered through a 70 μm nylon mesh and the cells collected by centrifugation at 257×g, 10 min. The cells were resuspended in RPMI 1640 supplemented with 10% FBS (Gibco), PEST and fungizone (culture medium), plated in T25 flasks (TPP Cat#90026). After overnight incubation nonadherent cells were removed and the culture medium was replaced every third day until the cells approached confluency (normally achieved within 7-10 days). At near-confluency, the cells were washed with PBS and harvested by trypsination. After washing in PBS the cells were resuspended in culture medium and seeded at 10.000 cells/well/0.2 ml in 96 well plates (Nunc cat#167008). After overnight culture the culture medium was replaced with fresh medium and 50 ng/ml LPS (Sigma, L6529) together with different concentrations of 5-HT, 5-HT2 receptor agonists and/or antagonists and N-(2-chloro-3,4-dimethoxybenzylideneamino)guanidine. The cells were incubated for 72 hours after which the supernatants were collected and analyzed for IL-6 (BD OptEIA™ Set). The effect of treatment on cell viability was determined using the cell proliferation reagent, WST-1 (Roche Diagnostics). In another experiment rat synoviocytes were incubated with 50 ng/ml LPS for 2 or 22 hours were after the levels of 5-HT was analysed in the cell culture medium using a Serotonin ELISA kit (IBL International, RE59121). We also incubated rat synoviocytes with 5-HT (10 μM) and measured the gene expression of 5-HT2B and 5-HT2C.

Structure (SMILES) | IL-6 release induced by 5-HT and LPS
CC(C)c1cc(-c2ccc(F)c3ccccc23)nc(N)n1 [RS-127445] | clearly reduced the IL-6 release
Cc1cc2c(cc1Cl)N(C(=O)Nc1ccc(Oc3cccnc3C)nc1)CC2 [SB 242084, 6-chloro-5-methyl-1-[6-(-methylpyridin-3-yloxy)pyridin-3-ylcarbomyl]indoline] | clearly reduced the IL-6 release

Same assay, conditions: 1 μM agonist in the presence of LPS 50 ng/ml; 72 hours

Structure (SMILES) | IL-6 release on agonist stimulation
NCCc1c[nH]c2ccc(O)cc12 [Example 5-HT, 5-Hydroxytryptamine] | clear increase in IL-6 release
CC(N)Cc1c[nH]c2ccc(OCc3cccs3)cc12 (stereo not drawn) [BW 723C86] | induces a response in IL-6 production

Target: 5HT2B receptor (Homo sapiens, UniProt P41595)
Test: not given
Details: 5HT2B receptor antagonists, Table 1; cited from earlier work

5HT2B receptor, sequence (P41595 whole entry): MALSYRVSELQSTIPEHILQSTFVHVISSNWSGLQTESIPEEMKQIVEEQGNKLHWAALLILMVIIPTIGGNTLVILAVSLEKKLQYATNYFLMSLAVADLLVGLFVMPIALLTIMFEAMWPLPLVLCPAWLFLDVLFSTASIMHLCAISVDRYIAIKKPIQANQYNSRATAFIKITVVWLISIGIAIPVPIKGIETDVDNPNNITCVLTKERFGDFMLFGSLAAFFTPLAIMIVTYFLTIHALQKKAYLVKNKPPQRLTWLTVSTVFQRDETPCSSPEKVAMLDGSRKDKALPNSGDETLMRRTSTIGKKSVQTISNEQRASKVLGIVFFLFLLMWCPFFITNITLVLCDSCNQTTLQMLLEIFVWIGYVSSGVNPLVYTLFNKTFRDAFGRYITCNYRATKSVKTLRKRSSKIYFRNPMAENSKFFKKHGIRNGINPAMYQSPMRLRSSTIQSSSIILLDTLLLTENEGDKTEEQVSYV

Structure (SMILES) | Affinity
OC(c1ccccc1)C1CCN(CCc2ccccc2)CC1 (stereo not drawn) [MDL-11,939, α-phenyl-1-(2-phenylethyl)-4-piperidinemethanol] | 5.5 pKi
COc1cccc(CCc2ccccc2OCC(CN(C)C)OC(=O)CCC(=O)O)c1 (stereo not drawn) [sarpogrelate, 4-[1-dimethylamino-3-[2-[2-(3-methoxyphenyl)ethyl]phenoxy]-propan-2-yl]oxy-4-oxo-butanoic acid] | 6.6 pKi
NCCC(Oc1ccc(C(F)(F)F)cc1)c1ccccc1 (stereo not drawn) [norfluoxetine] | 5.3 pKi
COc1ccc2cccc(CCNC(C)=O)c2c1 [agomelatine, N-[2-(7-methoxynaphthalen-1-yl)ethyl]acetamide] | 6.6 pKi
O=C1NCN(c2ccccc2)C12CCN(CC1COc3ccccc3O1)CC2 (stereo not drawn) [spiroxatrine, 8-(7,10-dioxabicyclo[4.4.0]deca-1,3,5-trien-8-ylmethyl)-4-phenyl-2,4,8-triazaspiro[4.5]decan-1-one] | 6.3-6.8 pKi
Oc1ccc2[nH]cc(CCCCN3CC=C(c4ccccc4)CC3)c2c1 [roxindole, 3-[4-(4-phenyl-3,6-dihydro-2H-pyridin-1-yl)butyl]-1H-indol-5-ol] | 7.5 pKi
Cn1ccc2cc3c(cc21)CCN3C(=O)Nc1cccnc1 [SB 206553, 5-methyl-1-(3-pyridylcarbamoyl)-1,2,3,5-tetrahydrolpyrrolo[2,3-f]indole] | 7.6-8.5 pKi
CC(C)C[C@H]1C(=O)N2CCC[C@H]2[C@]2(O)O[C@](NC(=O)[C@@H]3C=C4c5cccc6[nH]c(Br)c(c56)C[C@H]4N(C)C3)(C(C)C)C(=O)N12 [bromocriptine] | 7.3 pKi
CSc1cc2c(cc1C(F)(F)F)N(C(=O)Nc1cccnc1)CC2 [SB 221284, 5-(methylthio)-1-(3-pyridylcarbamoyl-6-trifluoromethyl)indoline] | 8.6 pKi
Cc1nc(-c2ccc(-c3ccc(C(=O)N4CCc5cc6c(cc54)C4(CCN(C)CC4)CO6)cc3)c(C)c2)no1 [SB 224289, 1′-methyl-5-[[2′-methyl-4′-(5-methyl-1,2,4-oxadiazol-3-yl)biphenyl-4-yl]carbonyl]-2,3,6,7-tetrahydrospiro[furo[2,3-f]indole-3,4′-piperidine hydrochloride] | 5.9 pKi
COc1cc2c(cc1C(F)(F)F)N(C(=O)Nc1cc(F)cc(-c3cccnc3)c1)CC2 [SB 228357, 1-5[-fluoro-3-(3-pyridyl)phenyl-carbamoyl]-5-methoxy-6-trifuoromethylindoline] | 8.0-8.1 pKi
CC(O)C(C)OC(=O)C1CC2c3cccc4[nH]cc(c34)CC2N(C)C1 (stereo not drawn) [LY86057] | 7.9 pKi
Cn1ccc2cc(NC(=O)Nc3cccnc3)ccc21 [SB 200646, N-(1-Methyl-1H-indol-5-yl)-N′-3-pyridinylurea] | 7.4 pKi
CN1CCC2CN3CCc4cccc(c43)C2C1 (single isomer, unassigned; (+)) [SDZ SER-082, (+)-cis-4,5,7a,8,9,10,11,11a-octahydro-7H-10-methylindolo[1,7-bc][2,6]-naphthyridine] | 6.7 pKi
Cc1nc2sccn2c(=O)c1CCN1CCC(=C(c2ccc(F)cc2)c2ccc(F)cc2)CC1 [ritanserin, 4-[2-[4-[bis(4-fluorophenyl)methylidene]-1-piperidyl]ethyl]-3-methyl-9-thia-2,6-diazabicyclo[4.3.0]nona-1,3,7-trien-5-one] | 8.7-9.2 pKi
CCN(CC)C(=O)N[C@H]1C[C@@H]2c3cccc4[nH]cc(c34)C[C@H]2N(C)C1 [terguride, N,N-diethyl-N′-[(8α)-6-methylergolin-8-yl]urea] | 8.2 pKi
Cc1cc2c(cc1Cl)N(C(=O)Nc1cccc3ncccc13)CC2 [SB 215505, 6-chloro-5-methyl-1-(5-quinolylcarbamoyl)indoline] | 8.3 pKi
c1cnc(N2CCN(Cc3ccc4c(c3)OCO4)CC2)nc1 [piribedil, 2-[4-(1,3-benzodioxol-5-ylmethyl)piperazin-1-yl]pyrimidine] | 5.9 pKi
CCCCN1CCC(CNC(=O)c2c3n(c4ccccc24)CCCO3)CC1 [piboserod, N-((1-Butyl-4-piperidyl)-methyl)-3,4-dihydro-2H-(1,3)oxazino(3,2-a)-indole-10-carboxamide] | 6.6 pKi
Cc1cc([N+](=O)[O-])c(N2CCN(Cc3ccccc3)CC2)cc1N [EGIS-7625, 1-benzyl-4-[(2-nitro-4-methyl-5-amino)-phenyl]-piperazine] | 9.0 pKi
O=C(CCCN1CCC2(CC1)C(=O)NCN2c1ccccc1)c1ccc(F)cc1 [spiperone, 8-[4-(4-fluorophenyl)-4-oxo-butyl]-1-phenyl-1,3,8-triazaspiro[4.5]decan-4-one] | 5.9-6.5 pKi
COc1cc(OC)c(C(=O)CCCCN2CCC3(CC2)NC(=O)NC3=O)cc1NS(=O)(=O)c1ccc(C(F)(F)F)cc1 [RS-102221] | 6.0-6.1 pKi
CC(C)c1cc(-c2ccc(F)c3ccccc23)nc(N)n1 [RS-127445-190] | 9.5 pKi
CN1CCc2cccc3c2C1Cc1ccc(O)c(O)c1-3 (stereo not drawn) [apomorphine, 5,6,6a,7-Tetrahydro-6-methyl-4H-dibenzo[de,g]quinolin-10,11-diol] | 6.9 pKi
CC(C)n1cc2c3c(cccc31)[C@H]1CC(C(=O)NC3CCCCC3)CN(C)[C@@H]1C2 (stereo partly drawn) [amesergide, N-Cyclohexyl-1-isopropyl-6-methylergoline-8-carboxamide] | 8.0 pKi

Same assay, conditions: cited from earlier work

Structure (SMILES) | Affinity
CC(C)c1cc(-c2ccc(F)c3ccccc23)nc(N)n1 [RS-127445] | 9.0 pKi
Cc1cc2c(cc1Cl)N(C(=O)Nc1ccc(Oc3cccnc3C)nc1)CC2 [SB 242084, 6-chloro-5-methyl-1-[6-(-methylpyridin-3-yloxy)pyridin-3-ylcarbomyl]indoline] | 6.8-7.0 pKi
CC(O)C(C)OC(=O)[C@@H]1C[C@@H]2c3cccc4c3c(cn4C(C)C)C[C@H]2N(C)C1.O=C(O)/C=C\C(=O)O (stereo partly drawn) [LY53857, 6-Methyl-1-(1-methylethyl)ergoline-8β-carboxylic acid 2-hydroxy-1-methylpropyl ester maleate salt] | 8.2 pKi

System: antigen-induced arthritis
Test: not given
Details: Andersson et al. 2000; cited from earlier work

Structure (SMILES) | effect in the AIA model (literature)
CN(Cc1cnc2nc(N)nc(N)c2n1)c1ccc(C(=O)N[C@@H](CCC(=O)O)C(=O)O)cc1 [methotrexate] | anti-arthritic effect
